How the values were obtained:
Assay in all cases: Preservative efficacy test (USP 51) in cold process cream, Example 1
Type in all cases: cell-based
[1] = system: Aspergillus brasiliensis (ATCC #16404); settings: cream with caprylic acid, by the end of the study (28 days)
Method: (§1) Creams were prepared aseptically by spraying 70% isopropyl alcohol on all surfaces and labware. Carbomer 940 and coco caprylate were obtained from BPI Labs, Inc. (Evanston, Wyo.). Safflower and olive oils were purchased from Jedwards International, Inc. (Quincy, Mass.). The cream formulations were as follows: […]
(§2) Preservative studies were completed at different times for caprylic acid and 10% carvacrol in caprylic acid. The negative and positive controls were designated at A, B for the caprylic acid study and 1, 2 for the addition of carvacrol in Table 1. The change in positive control ingredients was due to a shift in the preservative used for regular KPC formulations.
(§3) DI water was added to a pre-weighed 250 mL beaker and mixed at 800 rpm using an overhead mixer (Eurostar power-b IKA-WERKE, Wilmington, N.C.) with a 3 blade […] impeller. Carbomer 940 was slowly added to the center of the mixing water. The mixture was hydrated for 30 minutes while covered with aluminum foil. Glycerin quickly followed by Lysofix were slowly added to the solution. After 2 minutes, safflower oil, olive oil, and coco caprylate were slowly added to the mixture at 1000 rpm. The solution was mixed for 30 minutes while covered with aluminum foil. Next the pH was measured and adjusted to 5.5 with a 33.3% sodium hydroxide solution. The mixing speed was increased to 1400 rpm. From time to time, it was necessary to scrape the sides of the beaker with a spatula to ensure that the cream became homogenized. When the cream appeared homogenized, the amount of preservative or treatment was added. After 2 minutes, the cream was weighed and water added to reach a mass balance.
(§4) Microorganisms Escherichia coli (ATCC #8739), Staphylococcus aureus (ATCC #6538), Pseudomonas aeruginosa (ATCC #9027), and Candida albicans (ATCC #10231) were obtained from a −80° C. internal stock culture. Aspergillus brasiliensis (ATCC #16404) was obtained from an internal stock solution cultured stored at 4° C. E. coli, S. aureus, and P. aeruginosa were grown in tryptic soy broth (Bacto, BD Sciences, Manassas, Va.) and incubated at 37° C. for 24 h. A. brasiliensis was plated on Sabourand dextrose agar (Bacto, BD Sciences, Manassas, Va.) and incubated at 25° C. for 5-7 days. C. albicans was grown in Sabourand dextrose broth (Bacto, BD Sciences, Manassas, Va.) and incubated at 25° C. for 48 h.
(§5) Pathogens in broth were harvested by centrifugation (2400 rpm, 20 minutes) and suspended in sterile saline. A. brasiliensis was harvested by adding 18 mL sterile saline to the plate and agitating the mold from the agar with a sterile inoculating loop. The inoculum was collected upon agitation. All suspended microbes were diluted with sterile saline until an inoculum in the range of 10^8 CFU/mL was achieved. The inoculum concentration was determined by plate count method. Each strain was identified by plating on the appropriate growth media, E. coli, S. aureus, and P. aeruginosa on tryptic soy agar (Bacto, BD Sciences, Manassas, Va.) and C. albicans and A. brasiliensis on Sabrouand dextrose agar, to ensure there was no contamination of the inoculum.
(§6) Creams were plated according to the SOP^1 to ensure they were sterile. Each prepared cream was inoculated with 0.1 mL of inoculum per 10 g of sample to reach the targeted inoculated concentration of 6-log cfu/g. Samples were vortexed for 2 minutes. The inoculated creams were incubated at 25° C. […]

[2] = system: Pseudomonas aeruginosa (ATCC #9027); settings: cream with 0.5% or 1.0% caprylic acid, after 2 days
Method: as §1, §2, §3, §4, §5, §6

[3] = system: Candida albicans (ATCC #10231); settings: cream with 0.5% or 1.0% caprylic acid, after 2 days
Method: as §1, §2, §3, §4, §5, §6

[4] = system: Escherichia coli (ATCC #8739); settings: cream with 0.5% or 1.0% caprylic acid, after 3 days
Method: as §1, §2, §3, §4, §5, §6

[5] = system: Staphylococcus aureus (ATCC #6538); settings: cream with 0.5% or 1.0% caprylic acid, after 2 days
Method: as §1, §2, §3, §4, §5, §6

CCCCCCCC(=O)O [Caprylic Acid, octanoic acid]
Log reduction of A. brasiliensis [1]: 2 log
Log reduction of P. aeruginosa [2]: 5 log
Log reduction of C. albicans [3]: 5 log
Log reduction of E. coli [4]: 5 log
Log reduction of S. aureus [5]: 5 log

Source: patent US9578878B2, “Antimicrobial efficacy of an oregano oil and caprylic acid blend” (Kemin Industries, Inc., priority 2014, dated 2017)
